Reference: patent US10975116B2, “Methods of treating and preventing gastrointestinal motility disorders using aminosterols” (Enterin, Inc., priority 2013, dated 2021)
Entries after “also recorded” stand apart in the source; their conditions may differ.

Columns and labels:
[1] = tested on: Parkinson's-like syndrome; assay: Oral squalamine in Parkinson's-like syndrome without GI disorders, single subject; type: in vivo, human
Description: The individual was a person. They were a psychiatrist specializing in addiction. Movement disorder began. Original diagnosis was multiple sclerosis. Presenting symptoms were depression and difficulty in controlling the action of sitting in chair. They would “plop” onto a sit without braking the movement. […] Treatment with L-DOPA caused some correction of the sitting difficulty, leading to the presumptive diagnosis of Parkinson's disease. Therapy continued with increasing doses of Sinemet, followed by addition of ropinirole. Deterioration continued (despite an L-DOPA dose exceeding 10-11 pills/day), ropinirole (5×2 mg and 4×1 mg, daily) and amantadine was added. They were on Wellbutryn for depression. There had been no history of GI disorders, and bowel function was said to be normal.
The individual lived at home with a spouse and 2 children. They had to be driven to work. Walking was unsteady. Their speech was nearly incomprehensible. Face was mask-like. No obvious tremors. Walking was hesitant. Subject had fallen (or tripped) several times previously and used a cane.

[2] = tested on: pancreatic adenocarcinoma; assay: Oral squalamine in Stage 4b pancreatic cancer, single subject; type: in vivo, human
Protocol: A person presented with abdominal discomfort, weight loss, and malaise. After considerable medical consultations a diagnosis of pancreatic adenocarcinoma was made. The subject was treated with chemotherapy and experienced a severe adverse reaction, which included ascites and pleural effusion. […] In August 2013, the subject was evaluated for a clinical trial at TGEN in Arizona, but not admitted due to the extensive cancer evident in the pancreas, liver, and nodes.
In late August 2013, the subject was begun on 50 mg/day, then increased to 100 mg/day after a week. The subject began once monthly cycles of cisplatin and 5-FU. […] The overall level of performance of the individual continues to improve, but the ascites and pleural effusions persist. […] All concurrent chemotherapy has stopped. Squalamine treatment continues.

[3] = tested on: Parkinson's disease; assay: Oral squalamine in Parkinson's disease with constipation, single subject; type: in vivo, human
Protocol: A person, in otherwise good health, presented with Parkinson's disease of about 5 yrs duration. They were severely constipated and suffered from frequent episodes of cramping. These GI symptoms were similar to that described in Parkinson's and could not be alleviated medically or through dietary adjustment. Their medications included 5 L-DOPA/DDC caps/day and 1-2 Requip before bedtime. Their neurological status at this time was as follows, as determined about 1 hour after an L-DOPA dosing, a time point when they appear to be repleted with dopamine: • Slow walking with shuffling . . . need to squat intermittently • Articulation poor . . . difficult to understand their speech . . . halting • Use of utensils while eating involved slow, awkward movements • Face seemed a bit mask like; unconsciously made chewing movements • Cognitive function (memory, wit) was less than observed 3 months prior • Balance was unsteady • Mood was depressed • Swallowing noted to be difficult at times • Chewing food was slow • Handwriting was small
Began oral dosing with 200 mg capsule of squalamine on Day 1. Capsule was taken in the AM before breakfast, along with L-DOPA. […] 200 mg cap on day 2 provoked a watery diarrhea at 2 hrs after dosing, but discharge subsided by day 3 dosing. On day 13, subsequent dosing was maintained at 200 mg every other day, with some minor degree of nausea. No watery discharge. At about Day 30 the subject was switched to 100 mg every other day, and remained on this regimen for about 9.5 months.

[4] = tested on: lymphoma; assay: Oral squalamine in lymphoma, single subject; type: in vivo, human
Protocol: A person with a 2 year history of progressive dementia and weakness presented with a massive cervical, axillary, and inguinal lymphadenopathy, along with malaise, somnolence and pain. […] The skin of their feet was a nonblanching bright pink hue up to the ankle with a scattered brownish purpuric rash. The individual was provided end of life care.
At the end of December 2013, the individual was begun on a daily dose of one 50 mg capsule of squalamine. […] Rash cleared within 3 days. On day 4 after squalamine initiation, a short course of dexamethsone was begun to treat the hypercalcemia, and stimulate appetite. 20 mg (4 days), 16 mg (2 days), 8 mg, 4 mg (2 days), then 2 mg daily. […] Mid-January 2014 weakness on the right, involving arm and leg was noted; a diagnosis of a mild stroke was made. […] A flat left submandibular node was felt of normal size and consistency. […] Squalamine treatment continues.

[5] = tested on: intrinsic primary afferent neurons (IPANs) of the colon; assay: Patch-clamp of IPANs of the colon, epithelial lining peeled away; type: cell-based, mouse
Protocol: In this Example the same procedure as that described in Example 12 was followed except that the epithelial lining of the colon was peeled away prior to application of squalamine to the lumen. Signals from individual IPANs were recorded. Concentrations of squalamine as low as 1 uM could now stimulate a robust response, similar quantitatively (and qualitatively) to concentrations 30-100 fold higher, when an intact epithelium was present.

[6] = tested on: mucinous adenocarcinoma (Stage 4b colon cancer); assay: Oral squalamine in Stage 4b colon cancer, single subject; type: in vivo, human
Protocol: A person presented with abdominal distention, pain, and progressive weight loss of several months duration.
The individual was begun on a total daily dose of 50 mg of squalamine, administered as 25 mg twice daily, as a powder dispersed in apple sauce. Approximately 6 months after initiation of squalamine treatment the individual was seen again at the hospital due to the chance recognition of a mass on their right kidney. The kidney was surgically removed, and during the procedure the peritoneum explored. […] The mass on the kidney was a benign cyst. Treatment with squalamine continued daily for 5 years. […] The subject died […] of a myocardial infarction.

[7] = tested on: endometrial cancer; assay: Oral squalamine in endometrial cancer, single subject; type: in vivo, human
Protocol: A person presented with abdominal discomfort and the presence of a palpable abdominal mass. […] Surgical removal of the uterus and ovaries was followed by chemotherapy. Subsequently, a large tumor adherent to the distal colon was discovered, along with additional nodes. A colonic resection was performed along with local radiation to the peritoneum.
The individual decided to stop all chemotherapy due to progression of the cancer and the adverse reactions previously experienced. The subject began oral squalamine in capsule form in August 2012. […] The dose of squalamine was raised to 100 mg/day in two divided doses. In October 2013, the tumor adjacent to the ureter was irradiated. […] The individual remains on squalamine 100 mg/day. They are in otherwise excellent health.

## squalamine
[1]; Day 1, 100 mg cap
  Observations: No obvious GI response. Continued
[1]; Day 21, 100 mg every other day, then began 200 mg every other day
  Observations: articulation had become noticeably better; also recorded: improving and their energy level was increasing
[1]; Month 3, subject ran out of squalamine 2 weeks prior (cessation)
  Observations: worst constipation they had ever remembered.”; also recorded: that he “was not feeling as good”
[1]; Month 5, 100 mg every other day raised to 200 mg every day at month 5.5
  Observations: mg every day at month 5.5. No GI; also recorded: colleagues noted improvement. Took; also recorded: several falls which they attributed
[1]; Month 6, 200 mg every day
  Observations: Individual could compensate being pulled; also recorded: told me that they felt their balance had improved; also recorded: Still had difficulty initiating; also recorded: No tremor; also recorded: Voice was of low; also recorded: volume. Face was still mask-like; also recorded: Once moving subject walked without; also recorded: Medication dosing had not changed
[2]; 100 mg/day with monthly cisplatin and 5-FU, February 2014
  PET/CT scan: complete loss of all PET active masses
[2]; 100 mg/day, ongoing
  cytology of the peritoneal fluid: remains negative for abnormal cells
[2]; 50 then 100 mg/day from late August 2013, with monthly cisplatin and 5-FU, early December 2013
  PET/CT scan: dramatic reduction in PET intensity of all previously active cancer
[3]; 200 mg cap on day 2
  watery diarrhea, time after dosing: 2 h
[3]; 200 mg capsule Day 1, AM before breakfast, with L-DOPA
  GI response to first dose: No nausea experienced nor watery discharge; also recorded: Passed several moist stools
[3]; 3 Weeks, 200 mg, from day 13 every other day
  Observations: Mood seems to have improved; also recorded: Some shaking even after L-DOPA; also recorded: Bowels improved considerably; also recorded: Walking more comfortably, but still uneven; also recorded: Subject feels breathing is easier; also recorded: Articulation much improved
[3]; oral squalamine 200 mg regimen
  resolution of constipation: Constipation resolved within several weeks
[4]; 50 mg daily from end of December 2013, end of February 2014
  physical examination of nodes: no palpable cervical nodes
[4]; 50 mg daily, by 1 week, dexamethsone from day 4
  lymph node size: marked reduction in the size of the nodes
[4]; 50 mg daily, repeat study
  clinical chemistry, polyclonal immunoglobulins: complete resolution of the polyclonal gammopathy
[4]; one 50 mg capsule daily
  rash cleared: ≤ 3 days
[4]; one 50 mg capsule daily, previously constipated
  bowel function: bowels began to move
[5]; epithelial lining peeled away
  lowest concentration stimulating a robust IPAN response: 1 µM
[5]; intact versus stripped epithelium
  fold higher concentrations needed for similar response when an intact epithelium was present: 30-100 fold
[6]; 50 mg/day (25 mg twice daily, powder in apple sauce), approximately 6 months
  tumor at surgical exploration of the peritoneum: No tumor was visible
[6]; daily treatment for 5 years
  recurrence: no recurrence of cancer
[7]; 100 mg/day in two divided doses, February 2013 as printed
  PET/CT, metastases: no additional metasteses were observed
[7]; July 2013, before dose raised to 100 mg/day
  tumor status: a small tumor appeared adjacent to the right ureter, and a second attached to the left descending colon
[7]; oral capsules from August 2012, by March 2013
  PET/CT imaging: no evidence of malignancy was visible
